Experimental data as given in US10219516B2, “Molecules having pesticidal utility, and intermediates, compositions, and processes, related thereto” (priority 2015, dated 2019).

How the values were obtained:
Format in all cases: in vivo
[1] = tested on: Beet Armyworm (Spodoptera exigua, LAPHEG); test: Bioassay on Beet Armyworm (BAW), 128-well diet tray assay; conditions: Beet Armyworm, 128-well diet tray assay, read-out: BAW rating
Outline: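 Percent mortality, averaged across eight replicate wells, was scored after five to seven days at 25° C. under a 14:10 light-dark cycle. Each well's diet carried 50 μg/cm^2 of the dried test molecule and held one to five second instar larvae.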

[2] = tested on: Cabbage Looper (Trichoplusia ni, TRIPNI); test: Bioassay on Cabbage Looper (CL), 128-well diet tray assay; conditions: Trichoplusia ni; Cabbage Looper, 128-well diet tray assay; read-out: CL rating
Outline: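 Test molecule is dissolved in 90:10 acetone-water and applied at 50 μg/cm^2 onto artificial diet, then dried. One to five second-instar larvae go into each of eight wells. Trays, sealed but vented, stay at 25° C., 14:10 light-dark, five to seven days, after which mortality is averaged.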

[3] = tested on: Yellow Fever Mosquito (Aedes aegypti, AEDSAE); test: Bioassay on Yellow Fever Mosquito (YFM), 96-well plate larval assay; conditions: Yellow Fever Mosquito, 96-well plate larval assay
Outline: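 Aedes aegypti larvae (about 1 day old) in liver-powder water were added to plates dispensed from DMSO master plates (4000 ppm stock) diluted with 90:10 water/acetone; six replicate plates per master. Lidded plates were held at room temperature for 3 days, then each well was scored for mortality.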

| Structure (SMILES) | pest or weed control at 50 µg/cm2 [1] | pest or weed control at 50 µg/cm2 [2] | YFM rating [3] |
| --- | --- | --- | --- |
| O=C(Nc1cnc(F)c(Br)c1)c1cc(NC(=O)[C@H]2[C@H](c3cc(Cl)cc(Cl)c3)C2(Cl)Cl)ccc1Cl (relative stereo) [F395, N-(5-Bromo-6-fluoropyridin-3-yl)-2-chloro-5-(trans-2,2-dichloro-3-(3,5-dichlorophenyl)cyclopropane-1-carboxamido)benzamide] | 50 to 100% | 50 to 100% | A (80-100) |
| Cc1cc(NC(=O)c2cc(NC(=O)[C@H]3[C@H](c4cc(Cl)cc(Cl)c4)C3(Cl)Cl)ccc2Cl)cnc1F (relative stereo) [F396, 2-Chloro-5-(trans-2,2-dichloro-3-(3,5-dichlorophenyl)cyclopropane-1-carboxamido)-N-(6-fluoro-5-methylpyridin-3-yl)benzamide] | 50 to 100% | 50 to 100% | A (80-100) |
| C=Cc1ccc(NC(=O)c2cc(NC(=O)[C@H]3[C@H](c4cc(Cl)cc(Cl)c4)C3(Cl)Cl)ccc2Cl)nc1F (relative stereo) [F397, 2-Chloro-5-(trans-2,2-dichloro-3-(3,5-dichlorophenyl)cyclopropane-1-carboxamido)-N-(6-fluoro-5-vinylpyridin-2-yl)benzamide] | 50 to 100% | 50 to 100% | A (80-100) |
| C=C(F)c1ccc(NC(=O)c2cc(NC(=O)[C@H]3[C@H](c4cc(Cl)cc(Cl)c4)C3(Cl)Cl)ccc2Cl)nc1F (relative stereo) [F398, 2-chloro-5-(trans-2,2-dichloro-3-(3,5-dichlorophenyl)cyclopropane-1-carboxamido)-N-(6-fluoro-5-(1-fluorovinyl)pyridin-2-yl)benzamide] | 50 to 100% | 50 to 100% | A (80-100) |
| C=Cc1cc(NC(=O)c2cc(NC(=O)[C@H]3[C@H](c4cc(Cl)cc(Cl)c4)C3(Cl)Cl)ccc2Cl)cnc1F (relative stereo) [F399, 2-Chloro-5-(trans-2,2-dichloro-3-(3,5-dichlorophenyl)cyclopropane-1-carboxamido)-N-(6-fluoro-5-vinylpyridin-3-yl)benzamide] | 50 to 100% | 50 to 100% | A (80-100) |
| C=C(F)c1cc(NC(=O)c2cc(NC(=O)[C@H]3[C@H](c4cc(Cl)cc(Cl)c4)C3(Cl)Cl)ccc2Cl)cnc1F (relative stereo) [F400, 2-Chloro-5-(trans-2,2-dichloro-3-(3,5-dichlorophenyl)cyclopropane-1-carboxamido)-N-(6-fluoro-5-(1-fluorovinyl)pyridin-3-yl)benzamide] | 50 to 100% | 50 to 100% | A (80-100) |
| C#Cc1ccc([C@H]2[C@H](C(=O)Nc3ccc(Cl)c(C(=O)Nc4ccc(F)cc4C#N)c3)C2(Cl)Cl)cc1Cl (relative stereo) [F401, 2-chloro-N-(2-cyano-4-fluorophenyl)-5-(trans-2,2-dichloro-3-(3-chloro-4-ethynylphenyl)cyclopropane-1-carboxamido)benzamide] | 50 to 100% | 50 to 100% | A (80-100) |
| C#Cc1cc([C@H]2[C@H](C(=O)Nc3ccc(Cl)c(C(=O)Nc4ccc(F)cc4)c3)C2(Cl)Cl)ccc1Cl (relative stereo) [F410, 2-Chloro-5-(trans-2,2-dichloro-3-(4-chloro-3-ethynylphenyl)cyclopropane-1-carboxamido)-N-(4-fluorophenyl)benzamide] | 50 to 100% | 50 to 100% | A (80-100) |
| O=C(Nc1ccc(F)cc1F)c1cc(NC(=O)[C@H]2[C@H](c3cc(F)cc(F)c3)C2(Cl)Cl)ccc1Cl (relative stereo) [F411, 2-Chloro-5-(trans)-(2,2-dichloro-3-(3,5-difluorophenyl)cyclopropane-1-carboxamido)-N-(2,4-difluorophenyl)benzamide] | 50 to 100% | 50 to 100% | A (80-100) |
| C#CCN(C(=O)c1cc(NC(=O)[C@H]2[C@H](c3cc(Cl)cc(Cl)c3)C2(Cl)Cl)ccc1Cl)c1ccc(F)cc1 (relative stereo) [F413, trans-2-Chloro-5-(2,2-dichloro-3-(3,5-dichlorophenyl)cyclopropane-1-carboxamido)-N-(4-fluorophenyl)-N-(prop-2-yn-1-yl)benzamide] | 50 to 100% | 50 to 100% | A (80-100) |
| O=C(Nc1ccc(F)cc1)c1cc(NC(=O)[C@H]2[C@H](c3ccc([N+](=O)[O-])cc3)C2(Cl)Cl)ccc1Cl (relative stereo) [F422, 2-chloro-5-(trans-2,2-dichloro-3-(4-nitrophenyl)cyclopropane-1-carboxamido)-N-(4-fluorophenyl)benzamide] | 50 to 100% | 50 to 100% | A (80-100) |
| O=C(Nc1ccc(F)cc1F)c1cc(NC(=O)[C@H]2[C@H](c3cc(Br)cc(C(F)(F)F)c3)C2(Cl)Cl)ccc1Cl (relative stereo) [F424, 5-(trans)-(3-(3-Bromo-5-(trifluoromethyl)phenyl)-2,2-dichlorocyclopropane-1-carboxamido)-2-chloro-N-(2,4-difluorophenyl)benzamide] | 50 to 100% | 50 to 100% | A (80-100) |
| O=C(Nc1ccc(-n2cccn2)cc1)c1cc(NC(=O)[C@H]2[C@H](c3cc(Cl)cc(Cl)c3)C2(Cl)Cl)ccc1Cl (relative stereo) [F440, trans-N-(4-(1H-Pyrazol-1-yl)phenyl)-2-chloro-5-(2,2-dichloro-3-(3,5-dichlorophenyl)cyclopropanecarboxamido)benzamide] | 50 to 100% | 50 to 100% | A (80-100) |
| O=C(Nc1ccc2sccc2c1)c1cc(NC(=O)[C@H]2[C@H](c3cc(Cl)cc(Cl)c3)C2(Cl)Cl)ccc1Cl (relative stereo) [F452, trans-N-(Benzo[b]thiophen-5-yl)-2-chloro-5-(2,2-dichloro-3-(3,5-dichlorophenyl)cyclopropane-1-carboxamido)benzamide] | 50 to 100% | 50 to 100% | A (80-100) |
| CN1C(=O)Cc2cc(NC(=O)c3cc(NC(=O)[C@H]4[C@H](c5cc(Cl)cc(Cl)c5)C4(Cl)Cl)ccc3Cl)ccc21 (relative stereo) [F459, 2-Chloro-5-(trans)-(2,2-dichloro-3-(3,5-dichlorophenyl)cyclopropane-1-carboxamido)-N-(1-methyl-2-oxoindolin-5-yl)benzamide] | 50 to 100% | 50 to 100% | A (80-100) |
| Cn1nc(NC(=O)c2cc(NC(=O)[C@H]3[C@H](c4cc(Cl)cc(Cl)c4)C3(Cl)Cl)ccc2Cl)c2cc(C(F)(F)F)ccc21 (relative stereo) [F460, 2-Chloro-5-(trans)-(2,2-dichloro-3-(3,5-dichlorophenyl)cyclopropane-1-carboxamido)-N-(1-methyl-5-(trifluoromethyl)-1H-indazol-3-yl)benzamide] | 50 to 100% | 50 to 100% | A (80-100) |
